{
  "source": "PubChem BioAssay AID330",
  "about": "(DTP/NCI, 2004)",
  "system": "P388 leukemia ip, CD2F1 mice, survival T/C",
  "assay": "NCI In Vivo Anticancer Drug Screen. Data for tumor model P388 Leukemia (intraperitoneal) in CD2F1 (CDF1) mice",
  "settings": "endpoint: median survival time, higher = longer survival",
  "in_short": "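Mice carrying the transplanted tumor received test compound or vehicle. Survival was recorded in each group, and the value is the treated-group measurement divided by that of the vehicle-treated control group.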",
  "key": {"[1]": {"settings": "dose: 100.0 mg/kg/injection, schedule: Q04DX002 (ip), vehicle: saline with Tween-80"}, "[2]": {"settings": "dose: 200.0 mg/kg/injection, schedule: Q04DX002 (ip), vehicle: saline with Tween-80"}, "[3]": {"settings": "dose: 400.0 mg/kg/injection, schedule: Q04DX002 (ip), vehicle: saline with Tween-80"}, "[4]": {"settings": "dose: 50.0 mg/kg/injection, schedule: Q01DX009 (ip), vehicle: saline with Tween-80"}, "[5]": {"settings": "dose: 100.0 mg/kg/injection, schedule: Q01DX009 (ip), vehicle: saline with Tween-80"}, "[6]": {"settings": "dose: 200.0 mg/kg/injection, schedule: Q01DX009 (ip), vehicle: saline with Tween-80"}},
  "note": "Values joined by “and” are separate entries in the source; they are usually repeats but may differ in a detail not shown here. Identical values can stand only once. Toxic doses and inconclusive results are not listed.",
  "data": [
    {"smiles": "CCOC(=O)/C=C/C(=O)NNS(=O)(=O)CCC(NC(=O)OCc1ccccc1)C(=O)OCc1ccccc1", "note": "(configuration not stated)", "values": [
      {"measurement": "T/C", "setting": "dose: 12.5 mg/kg/injection, schedule: Q01DX009 (ip), vehicle: other", "value": "92 % of control"},
      {"measurement": "T/C", "setting": "dose: 25.0 mg/kg/injection, schedule: Q01DX009 (ip), vehicle: other", "value": "101 % of control"},
      {"measurement": "T/C", "setting": "dose: 50.0 mg/kg/injection, schedule: Q01DX009 (ip), vehicle: other", "value": "104 % of control"},
      {"measurement": "T/C", "setting": "dose: 100.0 mg/kg/injection, schedule: Q01DX009 (ip), vehicle: other", "value": "93 % of control"},
      {"measurement": "T/C", "setting": "dose: 200.0 mg/kg/injection, schedule: Q01DX009 (ip), vehicle: other", "value": "86 % of control"}
    ]},
    {"smiles": "CC(C)n1c(Cl)c(C(=O)O)c2ccccc21", "values": [
      {"measurement": "T/C", "setting": "[1]", "value": "100 % of control"},
      {"measurement": "T/C", "setting": "[2]", "value": "98 % of control"},
      {"measurement": "T/C", "setting": "[3]", "value": "100 % of control"}
    ]},
    {"smiles": "COCn1ncnc1C(=O)c1ccccc1", "values": [
      {"measurement": "T/C", "setting": "[4]", "value": "97 % of control"},
      {"measurement": "T/C", "setting": "[5]", "value": "98 % of control"},
      {"measurement": "T/C", "setting": "[6]", "value": "92 % of control"}
    ]},
    {"smiles": "Cc1ccccc1N(CC1CO1)CC1CO1", "note": "(configuration not stated)", "values": [
      {"measurement": "T/C", "setting": "dose: 25.0 mg/kg/injection, schedule: Q01DX009 (ip), vehicle: saline", "value": "119 % of control"},
      {"measurement": "T/C", "setting": "dose: 100.0 mg/kg/injection, schedule: Q01DX009 (ip), vehicle: acetone", "value": "156 % of control"},
      {"measurement": "T/C", "setting": "dose: 200.0 mg/kg/injection, schedule: Q01DX009 (ip), vehicle: saline", "value": "165 % of control"}
    ]},
    {"smiles": "COc1cc(OC)c(C(C)=O)c(OC)c1OC", "values": [
      {"measurement": "T/C", "setting": "[4]", "value": "106 % of control"},
      {"measurement": "T/C", "setting": "[5]", "value": "113 % of control"},
      {"measurement": "T/C", "setting": "[6]", "value": "106 % of control"}
    ]},
    {"smiles": "CC(C)c1oc(=O)cc2c1[C@@H](O)[C@H]1OC(=O)[C@@]3(C)[C@@H](O)[C@H]4O[C@H]4[C@@]2(C)[C@@H]13", "values": [
      {"measurement": "T/C", "setting": "dose: 0.94 mg/kg/injection, schedule: Q01DX001 (ip), vehicle: saline with Tween-80", "value": "105 % of control"},
      {"measurement": "T/C", "setting": "dose: 1.0 mg/kg/injection, schedule: Q01DX009 (ip), vehicle: saline with Tween-80", "value": "104 % of control"},
      {"measurement": "T/C", "setting": "dose: 1.88 mg/kg/injection, schedule: Q01DX001 (ip), vehicle: saline with Tween-80", "value": "105 % of control"},
      {"measurement": "T/C", "setting": "dose: 3.75 mg/kg/injection, schedule: Q01DX001 (ip), vehicle: saline with Tween-80", "value": "101 % of control and 107 % of control"},
      {"measurement": "T/C", "setting": "dose: 7.5 mg/kg/injection, schedule: Q01DX009 (ip), vehicle: saline with Tween-80", "value": "120 % of control"},
      {"measurement": "T/C", "setting": "dose: 10.0 mg/kg/injection, schedule: Q01DX009 (ip), vehicle: saline with Tween-80", "value": "113 % of control and 115 % of control"},
      {"measurement": "T/C", "setting": "dose: 15.0 mg/kg/injection, schedule: Q01DX001 (ip), vehicle: saline with Tween-80", "value": "108 % of control and 120 % of control"},
      {"measurement": "T/C", "setting": "dose: 15.0 mg/kg/injection, schedule: Q01DX009 (ip), vehicle: saline with Tween-80", "value": "104 % of control"},
      {"measurement": "T/C", "setting": "dose: 30.0 mg/kg/injection, schedule: Q01DX001 (ip), vehicle: saline with Tween-80", "value": "109 % of control and 113 % of control"}
    ]},
    {"smiles": "COCCO[Si](OCCOC)(OCCOC)c1ccccc1", "values": [
      {"measurement": "T/C", "setting": "dose: 50.0 mg/kg/injection, schedule: Q01DX009 (ip), vehicle: Klucel (hydroxypropylcellulose) (HPC)", "value": "101 % of control"},
      {"measurement": "T/C", "setting": "dose: 100.0 mg/kg/injection, schedule: Q01DX009 (ip), vehicle: Klucel (hydroxypropylcellulose) (HPC)", "value": "107 % of control"},
      {"measurement": "T/C", "setting": "dose: 200.0 mg/kg/injection, schedule: Q01DX009 (ip), vehicle: Klucel (hydroxypropylcellulose) (HPC)", "value": "117 % of control"}
    ]},
    {"smiles": "Cc1oc2c(c(C)nn2-c2ccccc2)c(=O)c1Cl", "values": [
      {"measurement": "T/C", "setting": "dose: 50.0 mg/kg/injection, schedule: Q01DX005 (ip), vehicle: Klucel (hydroxypropylcellulose) (HPC)", "value": "92 % of control"},
      {"measurement": "T/C", "setting": "dose: 100.0 mg/kg/injection, schedule: Q01DX005 (ip), vehicle: Klucel (hydroxypropylcellulose) (HPC)", "value": "106 % of control"},
      {"measurement": "T/C", "setting": "dose: 200.0 mg/kg/injection, schedule: Q01DX005 (ip), vehicle: Klucel (hydroxypropylcellulose) (HPC)", "value": "108 % of control"}
    ]},
    {"smiles": "CCN1C(=O)CC(NC2CC(OC3C[C@](O)(C(C)=O)Cc4c(O)c5c(c(O)c43)C(=O)c3c(OC)cccc3C5=O)OC(C)C2O)C1=O", "note": "(some centres not stated)", "values": [
      {"measurement": "T/C", "setting": "dose: 6.25 mg/kg/injection, schedule: Q04DX003 (ip), vehicle: water", "value": "115 % of control"},
      {"measurement": "T/C", "setting": "dose: 12.5 mg/kg/injection, schedule: Q04DX003 (ip), vehicle: water", "value": "103 % of control"},
      {"measurement": "T/C", "setting": "dose: 25.0 mg/kg/injection, schedule: Q04DX003 (ip), vehicle: water", "value": "105 % of control"},
      {"measurement": "T/C", "setting": "dose: 50.0 mg/kg/injection, schedule: Q04DX003 (ip), vehicle: water", "value": "105 % of control"}
    ]},
    {"smiles": "O=C1CCCCCOCCOCCOCCOCCOCCCCC1", "values": [
      {"measurement": "T/C", "setting": "dose: 50.0 mg/kg/injection, schedule: Q01DX005 (ip), vehicle: saline with Tween-80", "value": "104 % of control"},
      {"measurement": "T/C", "setting": "dose: 100.0 mg/kg/injection, schedule: Q01DX005 (ip), vehicle: saline with Tween-80", "value": "96 % of control"},
      {"measurement": "T/C", "setting": "dose: 200.0 mg/kg/injection, schedule: Q01DX005 (ip), vehicle: saline with Tween-80", "value": "101 % of control"}
    ]},
    {"smiles": "O=c1c(N=Nc2ccccc2Cl)c(O)n(-c2ccc(Cl)cc2)c(=S)n1-c1ccc(Br)cc1", "values": [
      {"measurement": "T/C", "setting": "[1]", "value": "99 % of control"},
      {"measurement": "T/C", "setting": "[2]", "value": "99 % of control"},
      {"measurement": "T/C", "setting": "[3]", "value": "112 % of control"}
    ]}
  ]
}
